Experiments:
[1] = system: human epidermoid tumors (A431); experiment: In vivo inhibition of the growth of human epidermoid tumors (A431) in mice; design: species or system human tumor in BALB/c nu/nu female mice; settings: for tumor growth was inhibited by: 100 mg/kg i.p. days 1-10
Procedure: Representative compounds of this invention (listed below) were evaluated in an in vivo standard pharmacological test procedure which measured its ability to inhibit the growth of human epidermoid tumors. […] BALB/c nu/nu female mice (Charles River, Wilmington, Mass.) were used in this in vivo standard pharmacological test procedure. […] When tumors attained a mass of between 100 and 150 mg, the mice were randomized into treatment groups (day zero). Mice were treated IP once a day either on days 1, 5, and 9 or on days 1 through 10 post staging with doses of either 80, 40 or 20 mg/kg/dose of the compound to be evaluated in 0.2% Klucel. Control animals received no drug. Tumor mass was determined every 7 days [(length X width^2)/2] for 28 days post staging. Relative tumor growth (Mean tumor mass on days 7, 14, 21, and 28 divided by the mean tumor mass on day zero) is determined for each treatment group.

[2] = system: PC3; experiment: Inhibition of cancer cell growth as measured by cell number; assay type: cell-based, human; settings: PC3, 48 hours
Source text: (§1) The cell lines were chosen since they overexpressed epidermal growth factor receptor (EGFR) (i.e. A431) or HER2/neu (SKBR3), or had little to no expression of the these receptors (SW620, LOX, MCF7).

[3] = system: SW620; experiment: as above; assay type: cell-based, human; settings: SW620, 48 hours, Table 8
Source text: as §1

[4] = system: SKBR3; experiment: as above; assay type: cell-based, human; settings: SKBR3, 48 hours, Table 8
Source text: as §1

[5] = system: A431; experiment: as above; assay type: cell-based, human; settings: A431, 48 hours, Table 8
Source text: as §1

CCOc1cc2ncc(C#N)c(Nc3cccc(Br)c3)c2cc1OCC [Example 47, 4-[(3-Bromophenyl)amino]-6,7-diethoxy-3-quinolinecarbonitrile]
% T/C ([1]; 40 mg/kg/dose IP days 1-10, day 7): 69%
% T/C ([1]; 40 mg/kg/dose IP days 1-10, day 14): 74%
% T/C ([1]; 40 mg/kg/dose IP days 1-10, day 21): 116%
% T/C ([1]; 40 mg/kg/dose IP days 1-10, day 28): 136%
% T/C ([1]; 50 mg/kg/dose IP days 1-10, day 7): 44%
% T/C ([1]; 50 mg/kg/dose IP days 1-10, day 14): 55%
% T/C ([1]; 50 mg/kg/dose IP days 1-10, day 21): 87%
% T/C ([1]; 50 mg/kg/dose IP days 1-10, day 28): 102%
tumor growth was inhibited by ([1]; day 7): 66%
tumor growth was inhibited by ([1]; day 14): 63%
tumor growth was inhibited by ([1]; day 21): 49%
tumor growth was inhibited by ([1]; day 28): 57%
% T/C ([1]; 100 mg/kg/dose IP days 1-10, day 7): 34%
% T/C ([1]; 100 mg/kg/dose IP days 1-10, day 14): 37%
% T/C ([1]; 100 mg/kg/dose IP days 1-10, day 21): 51%
% T/C ([1]; 100 mg/kg/dose IP days 1-10, day 28): 43%
Tumor growth inhibition, dose dependence ([1]; i.p. days 1-10): appeared to be dose dependent
Inhibition of Cancer Cell Growth as Measured by Cell Number (IC50) [2]: 0.11 µg/mL

CCCN(CC#CC(=O)Nc1ccc2ncc(C#N)c(Nc3cccc(Br)c3)c2c1)CCC [Example 170, N-{4-[(3-Bromophenyl)amino]-3-cyano-6-quinolinyl}-4-dipropylamino-2-butynamide]
Inhibition of Cancer Cell Growth as Measured by Cell Number (IC50) [3]: 0.1 µg/mL
Inhibition of Cancer Cell Growth as Measured by Cell Number (IC50) [4]: 0.03 µg/mL
Inhibition of Cancer Cell Growth as Measured by Cell Number (IC50) [5]: 0.03 µg/mL

Reference: patent US6002008A, “Substituted 3-cyano quinolines” (American Cyanamid Company, priority 1998, dated 1999)
